Experimental data as given in patent US20090069324A1, “CHEMICAL INHIBITORS OF BFL-1 AND RELATED METHODS” (The Burnham Institute, priority 2007, published 2009).

Tests used:
[1] = target: T1, Bfl-1 (Homo sapiens, UniProt Q16548); experiment: Bfl-1 TR-FRET assay (FITC-Bid, Tb-anti-GST antibody); assay type: binding; details: Tables 3-5; read-out: Bfl-1 TR FRET IC50
T1 construct: lacking their C-terminal transmembrane domains (approximately last 20 amino-acids); made in house; host or cells: XL-1 Blue cells (E. coli), pGEX 4T-1
T1 sequence (Q16548 1-155 limits assumed): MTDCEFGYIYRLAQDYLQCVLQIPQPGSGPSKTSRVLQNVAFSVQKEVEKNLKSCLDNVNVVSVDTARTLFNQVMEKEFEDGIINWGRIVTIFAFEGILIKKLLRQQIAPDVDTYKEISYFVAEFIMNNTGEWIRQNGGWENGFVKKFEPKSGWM

[2] = Plasma stability; assay type: in vitro ADME; details: fresh rat plasma, 37.5° C.
Description: CID-779754 (MLS-0067130) has a metabolic half life of >60 min in the presence of rat liver microsomes when incubated at 37.5° C. (FIG. 6A), with 64% of the compound remaining at 1 hour. The plasma stability of CID-779754 is also good, with 79% remaining after incubating at 37.5° C. for 1 hour in fresh rat plasma (FIG. 6B).

[3] = tested on: human mast cells; experiment: Primary mast cell survival assay (activation-induced survival); assay type: cell-based
Description: To validate the biological activity of the probe in a cellular readout that is Bfl-1 dependent, CID-779754 was tested in an assay measuring the effect of compounds on primary mast cell survival.
The effect of a Bfl-1 inhibitor at, for example, 1 μM is tested on CBMCs derived from, for example, 12 different individuals. CBMCs are activated by aggregation of the high-affinity IgE-receptor (FcεRI)±CID-779754. Mast cells are cultured with or without IgE crosslinking (IgECL) agent, without or with Bfl-1 inhibitor. The percentage cell survival upon IgE-receptor activation are compared to cells not activated and the delta survival is calculated. Cell survival is measured by LDH release and data were presented as % difference between cells cultured with or without IgECL.

[4] = Solubility; details: aqueous buffer
Description: Compounds were screened for inhibitory activity of Bfl-1 essentially as described in Example 1, and including a 1 h incubation of Bfl-1 in the presence of compounds and a 4 h incubation after the subsequent addition of the fluorescent probe. […] The assay was screened against the entire NIH small molecule library, which at the time consisted of 65,000 compounds. […] Controls included an “artifact” plate on which a GAPDH assay was performed to check selectivity, and a solubility plate on which a solubility assay was performed to test solubility.

[5] = PAMPA assay; assay type: in vitro ADME
[6] = target: T2, Bcl-2 (Homo sapiens, UniProt P10415); experiment: Bcl-2/FITC-Bim FPA selectivity assay; assay type: binding; details: Bcl-2/FITC-Bim complex
T2 construct: lacking their C-terminal transmembrane domains (approximately last 20 amino-acids); GST (N); made in house; host or cells: XL-1 Blue cells (E. coli), pGEX 4T-1
T2 sequence (P10415 1-218 limits assumed): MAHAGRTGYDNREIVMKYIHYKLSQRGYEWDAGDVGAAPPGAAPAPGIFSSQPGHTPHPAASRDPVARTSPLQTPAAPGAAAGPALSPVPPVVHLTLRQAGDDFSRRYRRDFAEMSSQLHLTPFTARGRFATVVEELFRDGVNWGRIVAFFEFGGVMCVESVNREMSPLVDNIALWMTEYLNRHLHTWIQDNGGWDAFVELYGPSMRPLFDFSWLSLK
From the text: This example illustrates assays for determining the selectivity of chemical inhibitors for Bfl-1. Bfl-1, as with other Bcl-2 family proteins, participates in a very complex and intricate network of interactions with other representatives of the family. Therefore, two selectivity assays involving family members Bcl-2 and Bcl-B were developed.
For Bcl-2, a FITC-conjugated peptide corresponding to the BH3 domain of Bim was used. For Bcl-B, a FITC-conjugated peptide corresponding to a fragment of the TR3/Nur77 protein shown to bind this member of the Bcl-2 family was used.
Probe specificity for target or for cell-based/phenotypic assays data can be determined in orthogonal cell-based assay systems that address the pathway of interest. For example, compounds were tested in Bfl-1/FITC-Bid FPA and TR-FRET assays (FIGS. 7A and 7B, respectively), as well as Bcl-2/FITC-Bim FPA (FIG. 7C) and Bcl-B/FITC-TR3-R8 FPA (FIG. 7D) assays. Data represent concentration in μM x-axis) vs % displacement (y-axis).

For CN(C)C1=C(Cl)C(=O)N(c2ccc(Cl)c(Cl)c2)C1=O [CID-779754, 3-chloro-1-(3,4-dichlorophenyl)-4-(dimethylamino)-1H-pyrrole-2,5-dione], the IC50 [1] was 570 nM, the “remaining after incubating for 1 hour” value [2] was 79% and the “effect on activation-induced survival of mast cells” value [3] was “inhibited the activation-induced survival of human mast cells”. For the same molecule, the solubility [4] was no more than 100 µM, the “log Pe” value ([5]; PAMPA) was −4.2 and the “predicted human GI absorption” value ([5]; correlated from PAMPA log Pe) was greater than 50%. The “Competition for binding of a BH3 peptide to Bcl-2, in words” value [6] was “weak activity”.
